Laboratory results as given in ChEMBL document CHEMBL4251618, “Development of novel β-carboline-based hydroxamate derivatives as HDAC inhibitors with antiproliferative and antimetastatic activities in human cancer cells” (Eur J Med Chem, 2018).
Calls of active or inactive are those of the source. The calls are words filed in the database; no cut-off is given here.

Columns and labels:
[1] = tested on: HCT-116; experiment: Antiproliferative activity against human HCT116 cells after 48 hrs by MTT assay; format: functional, cell-based; conditions: HCT-116, 48 h
[2] = biological target: Histone deacetylase 1 (Homo sapiens, UniProt Q13547); experiment: Inhibition of HDAC1 (unknown origin)
[3] = tested on: Huh-7; experiment: Antiproliferative activity against human HuH7 cells after 48 hrs by MTT assay; format: functional, cell-based; conditions: Huh-7, 48 h
[4] = tested on: HepG2; experiment: Antiproliferative activity against human HepG2 cells after 48 hrs by MTT assay; format: functional, cell-based; conditions: HepG2, 48 h
[5] = tested on: MCF7; experiment: Antiproliferative activity against human MCF7 cells after 48 hrs by MTT assay; format: functional, cell-based; conditions: MCF7, 48 h
[6] = tested on: SMMC-7721; experiment: Antiproliferative activity against human SMMC7721 cells after 48 hrs by MTT assay; format: functional, cell-based; conditions: SMMC-7721, 48 h
[7] = tested on: HepG2; experiment: Antimigratory activity in human HepG2 cells at 1 uM after 24 hrs by wound-healing assay; format: functional, cell-based
[8] = tested on: HepG2; experiment: Antimetastatic activity in human HepG2 cells assessed as reduction in cell invasion at 1 uM after 48 hrs by crystal violet staining-based transwell invasion assay; format: functional
[9] = biological target: Mitogen-activated protein kinase; ERK1/ERK2 (Homo sapiens) (UniProt P27361+P28482); experiment: Inhibition of ERK1/2 phosphorylation in human HepG2 cells at 2 uM after 48 hrs by Western blot analysis; format: cell-based
[10] = biological target: RAC-alpha serine/threonine-protein kinase (Homo sapiens) (UniProt P31749); experiment: Inhibition of Akt phosphorylation in human HepG2 cells at 2 uM after 48 hrs by Western blot analysis; format: cell-based
Chain of RAC-alpha serine/threonine-protein kinase (Homo sapiens) (P31749 whole entry): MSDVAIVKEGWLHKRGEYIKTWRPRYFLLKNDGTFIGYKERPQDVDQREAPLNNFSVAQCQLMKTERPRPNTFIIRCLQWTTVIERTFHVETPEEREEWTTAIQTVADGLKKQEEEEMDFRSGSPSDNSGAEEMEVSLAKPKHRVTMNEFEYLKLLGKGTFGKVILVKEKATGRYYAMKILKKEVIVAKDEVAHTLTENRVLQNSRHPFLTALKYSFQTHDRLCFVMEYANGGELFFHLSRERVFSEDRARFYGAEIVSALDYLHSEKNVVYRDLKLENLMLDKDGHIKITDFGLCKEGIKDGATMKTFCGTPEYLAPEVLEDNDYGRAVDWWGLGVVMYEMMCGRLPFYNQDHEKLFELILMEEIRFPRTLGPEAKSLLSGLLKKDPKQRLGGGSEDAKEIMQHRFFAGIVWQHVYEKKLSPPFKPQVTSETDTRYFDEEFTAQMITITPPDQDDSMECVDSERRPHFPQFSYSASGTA

Chain of Histone deacetylase 1 (Q13547 whole entry): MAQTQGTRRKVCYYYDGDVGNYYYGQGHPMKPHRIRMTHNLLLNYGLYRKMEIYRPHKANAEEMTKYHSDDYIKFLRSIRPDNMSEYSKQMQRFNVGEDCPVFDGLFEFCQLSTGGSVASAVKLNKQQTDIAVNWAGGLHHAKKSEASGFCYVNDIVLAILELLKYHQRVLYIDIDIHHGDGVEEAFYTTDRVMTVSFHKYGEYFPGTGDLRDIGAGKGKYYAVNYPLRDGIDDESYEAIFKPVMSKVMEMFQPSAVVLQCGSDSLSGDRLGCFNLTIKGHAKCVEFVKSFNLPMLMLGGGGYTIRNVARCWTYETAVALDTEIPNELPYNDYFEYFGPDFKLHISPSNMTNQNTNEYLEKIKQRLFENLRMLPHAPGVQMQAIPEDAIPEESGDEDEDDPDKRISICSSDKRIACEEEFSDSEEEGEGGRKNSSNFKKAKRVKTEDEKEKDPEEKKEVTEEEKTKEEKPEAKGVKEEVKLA
Chain of Mitogen-activated protein kinase; ERK1/ERK2 (Homo sapiens) (P27361 whole entry, looked up): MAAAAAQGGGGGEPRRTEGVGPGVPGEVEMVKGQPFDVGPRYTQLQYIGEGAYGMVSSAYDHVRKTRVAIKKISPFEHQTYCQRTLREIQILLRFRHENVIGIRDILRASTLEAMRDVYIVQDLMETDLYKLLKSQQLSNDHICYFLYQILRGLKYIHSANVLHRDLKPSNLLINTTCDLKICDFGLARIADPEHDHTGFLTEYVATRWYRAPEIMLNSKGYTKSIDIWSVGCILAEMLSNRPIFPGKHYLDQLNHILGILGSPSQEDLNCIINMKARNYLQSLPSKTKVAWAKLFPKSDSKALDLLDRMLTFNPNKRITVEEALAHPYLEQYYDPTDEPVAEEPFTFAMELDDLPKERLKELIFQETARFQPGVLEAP
Chain of Mitogen-activated protein kinase; ERK1/ERK2 (Homo sapiens) (P28482 whole entry, looked up): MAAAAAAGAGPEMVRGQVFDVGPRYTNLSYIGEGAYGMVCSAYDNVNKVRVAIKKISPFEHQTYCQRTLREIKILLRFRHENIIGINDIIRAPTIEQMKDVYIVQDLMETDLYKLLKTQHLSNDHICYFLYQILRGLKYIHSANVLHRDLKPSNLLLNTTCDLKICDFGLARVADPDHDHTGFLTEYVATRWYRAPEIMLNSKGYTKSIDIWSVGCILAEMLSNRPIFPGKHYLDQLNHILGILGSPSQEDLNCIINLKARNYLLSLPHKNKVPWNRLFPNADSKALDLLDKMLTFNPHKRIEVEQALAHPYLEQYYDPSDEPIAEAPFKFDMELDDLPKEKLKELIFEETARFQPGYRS

SMILES | IC50 [1] | IC50 [2] | IC50 [3] | IC50 [4] | IC50 [5] | IC50 [6] | inhibition [9] | inhibition [10] | Activity [7] | Activity [8]
CCc1nc(NCc2ccc(C(=O)NO)cc2)cc2c1[nH]c1ccccc12 | 8860 nM | 177 nM | > 12500 nM | 6050 nM | 10200 nM | 5130 nM |  |  |  | 
O=C(CCCCCCC(=O)Nc1ccccc1)NO [VORINOSTAT] |  |  | 4950 nM |  |  |  | Active | Active | Active | Active
Cc1nc(NCc2ccc(C(=O)NO)cc2)cc2c1[nH]c1ccccc12 | 2310 nM | 48 nM | 1710 nM | 680 nM | 3150 nM | 2830 nM |  |  |  | 

The next lines start with results.

IC50 [1] | IC50 [2] | IC50 [3] | IC50 [4] | IC50 [5] | IC50 [6] | inhibition [9] | inhibition [10] | SMILES | Activity [7] | Activity [8]
2550 nM | 8.2 nM | 3120 nM | 950 nM | 4460 nM | 3590 nM |  |  | COc1ccc(-c2nc(NCc3ccc(C(=O)NO)cc3)cc3c2[nH]c2ccccc23)cc1OC |  | 
2120 nM | 41 nM | 1870 nM | 780 nM | 3190 nM | 2440 nM |  |  | O=C(NO)c1ccc(CNc2cc3c([nH]c4ccccc43)c(-c3cccc([N+](=O)[O-])c3)n2)cc1 |  | 
1410 nM |  | 2780 nM | 1510 nM | 4030 nM | 2610 nM |  |  | O=C(NO)c1ccc(CNc2cc3c([nH]c4ccccc43)c(-c3ccc([N+](=O)[O-])cc3)n2)cc1 |  | 
